According to patent US20160052937A1, “Tetrahydroimidazo[1,5-d][1,4]oxazepine compound” (Eisai R&D Management Co., Ltd., priority 2014, published 2016):

Key:
[1] = biological target: T1, human metabotropic glutamate receptor 2 (mGluR2) (Homo sapiens, UniProt Q14416); assay: [35S]GTPγS binding assay (Affinity to mGluR2); assay type: biochemical; settings: cell membrane fraction of HEK293 cells stably expressing human mGluR2; glutamic acid 10 μM
T1 construct: expressed in transfected cells; co-expressing human SLC1A3), cell membrane fraction
T1 sequence (Q14416 19-872): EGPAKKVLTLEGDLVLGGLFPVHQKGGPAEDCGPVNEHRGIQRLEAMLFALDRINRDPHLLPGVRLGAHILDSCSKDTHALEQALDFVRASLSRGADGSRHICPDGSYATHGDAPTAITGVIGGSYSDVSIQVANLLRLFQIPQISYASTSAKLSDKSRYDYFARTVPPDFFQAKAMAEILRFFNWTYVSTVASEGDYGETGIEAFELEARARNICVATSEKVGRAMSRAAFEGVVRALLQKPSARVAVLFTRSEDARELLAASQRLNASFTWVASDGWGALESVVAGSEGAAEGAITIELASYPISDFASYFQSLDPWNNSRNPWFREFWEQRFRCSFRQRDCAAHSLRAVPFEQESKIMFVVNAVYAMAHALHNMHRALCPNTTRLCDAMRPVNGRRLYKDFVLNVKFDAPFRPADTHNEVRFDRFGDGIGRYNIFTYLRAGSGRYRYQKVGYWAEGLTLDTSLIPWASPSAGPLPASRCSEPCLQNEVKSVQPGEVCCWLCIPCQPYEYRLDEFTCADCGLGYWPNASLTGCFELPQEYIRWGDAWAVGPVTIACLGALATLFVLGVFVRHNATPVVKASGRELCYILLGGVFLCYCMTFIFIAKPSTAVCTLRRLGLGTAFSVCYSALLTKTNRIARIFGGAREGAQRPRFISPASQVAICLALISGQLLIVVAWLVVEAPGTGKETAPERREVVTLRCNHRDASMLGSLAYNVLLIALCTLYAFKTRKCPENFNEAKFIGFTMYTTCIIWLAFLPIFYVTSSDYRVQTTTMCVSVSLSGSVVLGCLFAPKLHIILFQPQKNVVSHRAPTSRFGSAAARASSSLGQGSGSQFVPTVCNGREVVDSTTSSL
Procedure: (Preparation of Cell Membrane Fraction of HEK293 Cells Stably Expressing Human Metabotropic Glutamate Receptor 2 (mGluR2))
HEK293 cells stably expressing human mGluR2 and human glutamate transporter SLC1A3 were cultured in a Dulbecco's modified Eagle's medium with 10% fetal bovine serum (50 units/mL of penicillin, 50 μg/mL of streptomycin, 60 μg/mL of geneticin, 400 μg/mL of hygromycin B and 2 mM of glutamine) at 37° C. under 5% CO2. Confluent cell cultures were washed twice with PBS(−), and then scraped off with a cell scraper, and subjected to centrifugal separation at 4° C. and 1500 rpm for 5 minutes for collecting cells. The centrifuged sediment (cell pellet) was homogenized in a 20 mM HEPES buffer containing 10 mM EDTA (pH 7.4) by using sonicator and centrifuged at 4° C. and 1500×g for 30 minutes. The supernatant (soluble fraction) was subjected to the centrifugal separation at 4° C. and 40,000×g for 30 minutes, and thus, insoluble fraction was obtained. After additional centrifugally washing the obtained fraction with 20 mM HEPES buffer containing 10 mM EDTA (pH 7.4), the pellet was centrifugally suspended with a 20 mM HEPES buffer containing 0.1 mM EDTA, and the cell membrane fraction was obtained by the centrifugal separation at 4° C. and 40,000×g for 30 minutes. The thus obtained cell membrane fraction was suspended in a 20 mM HEPES buffer containing 0.1 mM EDTA in a protein concentration of 3 mg/mL, which was stored at −80° C.
([^35S]GTPγS binding assay)
The frozen cell membrane fraction prepared as described above was thawed before use, and the resultant was diluted with a buffer for a binding assay (final concentrations: 20 mM HEPES, 100 mM NaCl, 1 mM MgCl2, 3 μM GDP, 300 μg/mL saponin, 0.1% BSA). The compound of each example was added to a cell membrane fraction containing 1.8 to 3 μg/assay of membrane protein on a plate, followed by incubation at room temperature for 30 minutes. Thereafter, with glutamic acid (in a final concentration of 10 μM) added thereto, incubation was performed at room temperature for 15 minutes, and thereafter, [^35S]GTPγS (in a final concentration of 0.8 kBq) and 588 μg WGA-SPA beads were added thereto, followed by incubation at room temperature for 1 hour. After the incubation, the plate was subjected to the centrifugal separation at 2,500 rpm and room temperature, and then, membrane cell binding radioactivity was measured with a top count.
A [^35S]GTPγS binding amount obtained by performing the above-described reaction in the absence of glutamic acid was defined as nonspecific binding, and a difference from a [^35S]GTPγS binding amount obtained in the presence of glutamic acid was defined as specific binding. On the basis of ratios of inhibiting the specific binding at various concentrations of the compounds of the respective examples, inhibition curves were obtained. Concentrations of the compounds of the respective examples at which the specific [^35S]GTPγS binding amount was suppressed by 50% (IC50 values) were calculated on the basis of the inhibition curves and shown in Table 3.

[2] = tested on: Long-Evans rats, cognitive impairment induced by scopolamine; assay: Novel object recognition (NOR) test in rats; assay type: in vivo, rat; settings: oral; scopolamine hydrobromide 0.3 mg/kg i.p.; statistically significant difference in discrimination index vs scopolamine alone group
Procedure: Six-week old male Long-Evans rats were used for this test. For 2 days before starting the test, the rats were acclimated to experimental operations such as administration and a test device (that is, a black or gray plastic cage with a width of 40 cm, a depth of 30 cm and a height of 45 cm). Each test compound was dissolved in a 0.1 N hydrochloric acid to be orally administered. Thirty minutes after the administration, scopolamine hydrobromide was intraperitoneally administered at a 0.3 mg/kg dose, so as to induce cognitive impairment. After another 30 minutes, each rat was acclimated in the test device for 3 minutes, and thereafter, two blocks in the same shape were put in the test device as acquisition trial, and exploring time for each block was measured for 5 minutes. Two hours after the acquisition trial, the rat was acclimated in the test device for 3 minutes, and thereafter, the same block as those used in the acquisition trial and a new block in a different shape were put in the cage for retention trial. The exploring time for each block was measured for 3 minutes, and a ratio of the exploring time for the newly used block to the sum of the exploring times for the respective blocks was calculated as a discrimination index. The thus obtained discrimination indexes were compared among a group of rats to which a medium alone was administered (medium group), a group of rats to which scopolamine alone was administered (scopolamine alone group) and a group of rats to which both the test compound and scopolamine were administered, so as to evaluate the action of the test compound on the novel object recognition function (cognitive function) of the rats.
Each discrimination index was shown as an average and a standard error. The statistical significance between the medium group and the scopolamine alone group was analyzed by the independent t-test. The statistical significance between the scopolamine alone group and each sample group was analyzed by one-way analysis of variance and then by Dunnett's multiple comparison test. The significance level was set to 5% on both sides. […] The analysis was carried out by using Prism 5 for Windows for Japanese, ver. 5.03. A minimum effective dose at which a statistically significant difference was found between a group suffering from the cognitive impairment induced by scopolamine and a group treated with each compound is shown in Table 4.

SMILES | IC50 [1] [nM] | Minimum effective dose [2]
CC(C)NS(=O)(=O)c1ccc(-c2nc(-c3ccc(F)cc3)n3c2CCO[C@H](C)C3)cc1 [Example 1, (R)-4-(3-(4-fluorophenyl)-6-methyl-5,6,8,9-tetrahydroimidazo[1,5-d][1,4]oxazepin-1-yl)-N-isopropylbenzenesulfonamide] | 3.7 | 1 mg/kg, p.o.
COc1ccc(-c2nc(-c3ccc(S(=O)(=O)NC(C)(C)C)cc3)c3n2C[C@@H](CF)OCC3)cc1 [Example 2, (S)—N-(tert-butyl)-4-(6-(fluoromethyl)-3-(4-methoxyphenyl)-5,6,8,9-tetrahydroimidazo[1,5-d][1,4]oxazepin-1-yl)benzenesulfonamide] | 3.1 | 3 mg/kg, p.o.
COc1ccc(-c2nc(-c3ccc(S(=O)(=O)NC4CCC4)cc3)c3n2C[C@@H](C)OCC3)cc1 [Example 3, (R)—N-cyclobutyl-4-(3-(4-methoxyphenyl)-6-methyl-5,6,8,9-tetrahydroimidazo[1,5-d][1,4]oxazepin-1-yl)benzenesulfonamide] | 5 | 1 mg/kg, p.o.
COc1ccc(-c2nc(-c3ccc(S(=O)(=O)NC(C)C)cc3)c3n2C[C@@H](C)OCC3)cc1 [Example 8, (R)—N-isopropyl-4-(3-(4-methoxyphenyl)-6-methyl-5,6,8,9-tetrahydroimidazo[1,5-d][1,4]oxazepin-1-yl)benzenesulfonamide] | 3.1 | 3 mg/kg, p.o.
CCNS(=O)(=O)c1ccc(-c2nc(-c3ccc(OC(F)F)cc3)n3c2CCO[C@H](CF)C3)cc1 [Example 59] | 3.9 | 
O=S(=O)(NC1CCC1)c1ccc(-c2nc(-c3ccc(OC(F)F)cc3)n3c2CCO[C@H](CF)C3)cc1 [Example 60] | 4.6 | 
CC1(NS(=O)(=O)c2ccc(-c3nc(-c4ccc(OC(F)F)cc4)n4c3CCO[C@H](CF)C4)cc2)CCC1 [Example 61] | 3.7 | 
COc1ccc(-c2nc(-c3ccc(S(=O)(=O)NC(C)C)cc3)c3n2C[C@@H](C)OCC3)cc1F [Example 62, (R)—N-isopropyl-4-(3-(3-fluoro-4-methoxyphenyl)-6-methyl-5,6,8,9-tetrahydroimidazo[1,5-d][1,4]oxazepin-1-yl)benzenesulfonamide] | 4.3 | 
COc1ccc(-c2nc(-c3ccc(S(=O)(=O)NC(C)(C)C)cc3)c3n2C[C@@H](C)OCC3)cc1F [Example 63] | 3.9 | 
Cc1ccc(-c2nc(-c3ccc(S(=O)(=O)NC(C)(C)C)cc3)c3n2C[C@@H](C)OCC3)cc1F [Example 64] | 4.5 | 
Cc1ccc(-c2nc(-c3ccc(S(=O)(=O)NC(C)C)cc3)c3n2C[C@@H](C)OCC3)cc1F [Example 65] | 6.7 | 
C[C@@H]1Cn2c(-c3ccc(OC(F)F)c(F)c3)nc(-c3ccc(S(=O)(=O)NC(C)(C)C)cc3)c2CCO1 [Example 66] | 10.9 | 
